One block for each compound: values may come before it.
What was measured:
[1] = molecular target: T1, MMP-12 (catalytic domain, human recombinant) (Homo sapiens, UniProt P39900); assay: MMP-12 inhibition assay of boronic ester proinhibitors (IC50; activation with H2O2); assay type: biochemical; set-up: MMP-12 (catalytic domain, human, recombinant); purchased Enzo Life Sciences; conditions: for inhibition of MMP-12 with no hydrogen peroxide present / inhibition at 0.05 µM: 50 nM; for inhibition at 0.05 µM: 1 h of activation, read-out: inhibition of MMP-12 after activation with 100 μM H2O2; for IC50 against MMP-12: proinhibitors without H2O2
Description: (§1) MMP-9 (catalytic domain, human, recombinant) and MMP-12 (catalytic domain, human, recombinant) were purchased from Enzo Life Sciences. The assays were carried out in 96-well plates using a Bio-Tek Flx 800 plate reader. IC50 values were obtained for proinhibitors B17 and B18 against MMP-9 and MMP-12. Serial dilutions of the compounds dissolved in DMSO were incubated at 37° C. for 30 minutes with 20 μL of the appropriate MMP (0.45 U/mL for MMP-9 and 0.35 U/mL for MMP-12) in MMP assay buffer (50 mM HEPES, 10 mM CaCl2, 0.10% Brij-35, pH 7.5), for a total volume of 99 pt. The reaction was initiated by the addition of 1 μL (400 μM) of the fluorescent substrate (Mca-Pro-Leu-Gly-Leu-Dpa-Ala-Arg-NH2 where Mca=(7-methoxycoumarin-4-yl)-acetyl and Dpa=N-3-(2,4-dinitrophenyl)-L-α-β-diaminopropionyl)) and kinetic activity was measured every minute for 20 min with excitation and emission wavelengths at 335 nm and 405 nm, respectively. Measurements were performed in duplicate. The percent inhibition was plotted versus the inhibitor concentration. A linear fit of the data for each experiment gives the IC50 value of the inhibitor where y=50%.
(§2) MMP activity in the presence of H2O2 was evaluated with both MMP-9 and MMP-12 with 1 h of activation at concentrations close to their IC50 values. Using the calculated rate constants for the protected ZBGs B19 and B20, it was determined that 1 h of activation time for each proinhibitor with 100 μM H2O2 will provide enough 1,2-HOPO-2 or PY-2 to inhibit the MMPs at 50%. For example, for proinhibitor B17 with MMP-9, if the rate=k[B17][H2O2] and k=3.9 M^−1s^−1, [B17]=10 μM, and [H2O2]=100 μM, the rate of conversion would be 3.9×10^−9 M/s. Therefore, activation for 1 h would release 14 μM 1,2-HOPO-2, or enough inhibitor to provide approximately 50% inhibition of MMP-9 (IC50 value for 1,2-HOPO-2 against MMP-9 is ˜6 μM).
(§3) In each well, 1 μL of proinhibitors B17 and B18 and the inhibitors 1,2-HOPO-2 and PY-2 in DMSO (1 mM for MMP-9 or 5 μM for MMP-12) were incubated for 1 h at 37° C. with 10 μL H2O2 (1 mM in HEPES buffer, pH 7.5) in MMP assay buffer for a total volume of 79 pt. […] After activation of the proinhibitors, 20 μL of the appropriate MMP (0.45 U/mL for MMP-9 and 0.35 U/mL for MMP-12) was added and incubated for an additional 30 min. The reaction was initiated by the addition of 1 pt (400 μM) of the fluorescent substrate and kinetic activity was measured every minute for 20 min with excitation and emission wavelengths at 335 nm and 405 nm, respectively. Enzyme activity with inhibitor was calculated with respect to the control experiment (no inhibitor present). Measurements were performed in duplicate in two independent experiments.

[2] = molecular target: T2, MMP-9 (catalytic domain, human, recombinant) (Homo sapiens, UniProt P14780); assay: MMP-9 inhibition assay of boronic ester proinhibitors (IC50; activation with H2O2); assay type: biochemical; conditions: for inhibition of MMP-9 with no hydrogen peroxide present / inhibition at 10 µM: 10 μM; for inhibition at 10 µM: 1 h of activation, read-out: inhibition of MMP-9 after activation with 100 μM H2O2; for IC50: proinhibitors without H2O2, read-out: IC50 against MMP-9
T2 construct: MMP-9 (catalytic domain, human, recombinant); purchased BIOMOL International
Description: as §1, §2, §3

[3] = Cleavage of sulfonate ester PZBGs and proMMPi by H2O2 (UV-Vis, rate constant, HPLC); assay type: physicochemical; conditions: 50 μM in HEPES buffer, room temperature
Description: (§4) Absorption spectra of compounds were taken on a Perkin-Elmer Lambda 25 UV-Visible Spectrophotometer. To a 1.0 mL solution at 0.05 mM concentration of each compound in HEPES buffer (50 mM, pH 7.5) was added H2O2 (10 μL, 0.09M in HEPES) and absorption spectra were monitored over time at room temperature. Hydrolytic stability was measured by monitoring each sample in HEPES buffer over a 24 hour time period.
The pseudo-first order rate constant was calculated following literature procedure. To a 1.0 mL solution of compounds PZBG-1a, PZBG-1b, PZBG-1e, PZBG-5a, and PZBG-5b in HEPES buffer at 50 μM was added H2O2 to final concentrations of 150 μM, 250 μM, 500 μM, 750 μM, and 900 μM. Spectra were monitored over 15-30 min at room temperature with at least 50 spectra recorded at every concentration. The change in absorption at 298 nm for PZBG-1a and PZBG-1b were monitored, while the change in absorption at 288 nm was recorded for PZBG-1e, and 310 nm for PZBG-5a and PZBG-5b. The rate constant (kobs) was found from the linear slope of ln [(A−AZBG)/(Ao−AZBG)] vs. time where AZBG is the absorbance of a 50 μM sample of the ZBG or full-length inhibitor and AO is the initial absorbance of PZBG-1a, PZBG-1b, PZBG-1e, PZBG-5a, and PZBG-5b. The rate of conversion was determined from the slope of the line of kobs vs. [H2O2].
Analytical HPLC was performed on a HP Series 1050 system equipped with a Vydac® C18 reverse phase column (218 TP, 250×4.6 mm, 5 μm). […] Starting with 95% A and 5% B, an […] gradient was run for 15 min to a final solvent mixture of 5% A and 95% B, which was held for 5 min before ramping back down to 95% A and 5% B in 2 min and holding for an additional 4 min. Compounds ZBG-1a and PZBG-1a were prepared in HEPES buffer (50 mM, pH 7.5) at a concentration of 1 mM and retention times were determined. To evaluate cleavage by H2O2, a 1 mM solution of PZBG-1a in HEPES buffer was reacted with a 20-fold excess of H2O2 before analyzing under identical HPLC conditions as before.

[4] = Hydrolytic stability of sulfonate esters in HEPES buffer; assay type: physicochemical
Description: as §4

[5] = molecular target: T1, MMP-12 (catalytic domain, human recombinant); assay: MMP-12 fluorescence-based inhibition assay with and without H2O2 (sulfonate ester proMMPi); assay type: biochemical; set-up: MMP-12 (catalytic domain, human recombinant); purchased Enzo Life Sciences; conditions: 50 nM; for inhibition at 0.05 µM: 30 min of incubation
Description: MMP-12 (catalytic domain, human recombinant) was purchased from Enzo Life Sciences. The assays were carried out in a 96-well plate using a Bio-Tex Flx 800 plate reader. The activity of MMP-12 was evaluated after a 30 min incubation in the presence of H2O2 and proMMPi. The concentration of proMMPi used was selected to be close to the IC50 value of the parent full-length inhibitors, 1,2-HOPO-2 and PY-2[38]. In each well, 1 μL of proinhibitors PZBG-5a, PZGB-5b, and PZBG-6a and the inhibitors 1,2-HOPO-2 and PY-2 in DMSO (5 μM) were incubated for 30 min at 37° C. with 20 μL of MMP-12 (0.35 U/mL), 10 μL H2O2 (1 mM in HEPES buffer, pH 7.5), and MMP assay buffer (50 mM HEPES, 10 mM CaCl2, 0.10% Brij-35, pH 7.5) for a total volume of 99 μL. […] The reaction was initiated by the addition of 1 μL (400 μM) of the fluorescent substrate (Mca-Pro-Leu-Gly-Leu-Dpa-Ala-Arg-NH2 where Mca=(7-methoxycoumarin-4-yl)-acetyl and Dpa=N-3-(2,4-dinitrophenyl)-L-α-β-diaminopropionyl)) after the 30 minute incubation period and kinetic activity was measured every minute for 20 minutes with excitation and emission wavelengths at 335 nm and 405 nm, respectively. Enzyme activity with inhibitor was calculated with respect to the control experiment—no inhibitor present. Measurements were performed in duplicate in two independent experiments.

[6] = read-out: inhibition of MMP-12 after treatment with 100 μM H2O2
[7] = read-out: inhibition of MMP-12 before treatment with H2O2

T2 sequence (P14780 107-444 limits assumed): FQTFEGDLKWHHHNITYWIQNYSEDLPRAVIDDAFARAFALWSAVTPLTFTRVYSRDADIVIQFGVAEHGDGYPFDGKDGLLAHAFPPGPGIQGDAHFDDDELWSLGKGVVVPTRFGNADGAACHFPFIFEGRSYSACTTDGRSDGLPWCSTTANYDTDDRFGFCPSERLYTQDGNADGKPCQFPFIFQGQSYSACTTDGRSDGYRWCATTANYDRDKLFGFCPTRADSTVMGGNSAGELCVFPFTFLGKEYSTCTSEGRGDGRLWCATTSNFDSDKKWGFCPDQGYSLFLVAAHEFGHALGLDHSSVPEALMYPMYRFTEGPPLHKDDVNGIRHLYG
T1 sequence (P39900 106-263 limits assumed): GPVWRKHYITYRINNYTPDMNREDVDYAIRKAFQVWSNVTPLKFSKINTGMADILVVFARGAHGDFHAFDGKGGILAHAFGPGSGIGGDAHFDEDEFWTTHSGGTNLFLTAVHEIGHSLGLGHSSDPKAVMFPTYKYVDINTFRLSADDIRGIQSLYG

inhibition of MMP-12 with no hydrogen peroxide present [1]: little inhibition | inhibition at 0.05 µM [1]: 50% | IC50 against MMP-12 [1]: micromolar range | inhibition of MMP-9 with no hydrogen peroxide present [2]: little inhibition | inhibition at 10 µM [2]: 50% | IC50 [2]: > 1 mM
SMILES: CC1(C)OB(c2ccc(COn3c(C(=O)NCc4ccc(-c5ccccc5)cc4)cccc3=O)cc2)OC1(C)C [Compound B17, N-([1,1′-biphenyl]-4-ylmethyl)-6-oxo-1-((4-(4,4,5,5-tetramethyl-1,3,2-dioxaborolan-2-yl)benzyl)oxy)-1,6-dihydropyridine-2-carboxamide]

inhibition at 0.05 µM [5, 6]: ~30% | inhibition at 0.05 µM [5, 7]: ~20% | hydrolysis in buffer alone ([4]; after 9 h): ~50%
SMILES: O=C(NCc1ccc(-c2ccccc2)cc1)c1cccc(=O)n1OS(=O)(=O)c1ccccc1 [PZBG-5a, 6-(([1,1′-Biphenyl]-4-ylmethyl)carbamoyl)-2-Oxopyridin-1(2H)-yl benzenesulfonate]
pseudo-first order rate constant with an excess of H2O2 (full-length proMMPi) [3]: 0.3 M⁻¹ s⁻¹

inhibition at 0.05 µM [5, 6]: ~50% | inhibition at 0.05 µM [5, 7]: ~30% | hydrolysis in buffer alone ([4]; after 3 h): ~50%
SMILES: O=C(O)c1ccc(S(=O)(=O)On2c(C(=O)NCc3ccc(-c4ccccc4)cc3)cccc2=O)cc1 [PZBG-5b, 4-(((6-(([1,1′-Biphenyl]-4-ylmethyl)carbamoyl)-2-Oxopyridin-1(2H)yl)oxy)sulfonyl)benzoic acid]
pseudo-first order rate constant with an excess of H2O2 (full-length proMMPi) [3]: 1.1 M⁻¹ s⁻¹

Second part, the compound before the results:

SMILES: CC1(C)OB(c2ccc(COc3c(C(=O)NCc4ccc(-c5ccccc5)cc4)occc3=O)cc2)OC1(C)C [Compound B18, N-([1,1′-biphenyl]-4-ylmethyl)-4-oxo-3-((4-(4,4,5,5-tetramethyl-1,3,2-dioxaborolan-2-yl)benzyl)oxy)-4H-pyran-2-carboxamide]
inhibition of MMP-12 with no hydrogen peroxide present [1]: little inhibition | inhibition at 0.05 µM [1]: 50% | IC50 against MMP-12 [1]: micromolar range | inhibition of MMP-9 with no hydrogen peroxide present [2]: little inhibition | inhibition at 10 µM [2]: 50% | IC50 [2]: > 1 mM

SMILES: O=c1ccccn1OS(=O)(=O)c1ccccc1 [PZBG-1a, 2-Oxopyridin-1(2H)-yl benzenesulfonate]
pseudo-first order rate constant with an excess of H2O2 [3]: 0.7 M⁻¹ s⁻¹ | cleavage in buffer ([4]; in 6 h): ~50%

SMILES: Cc1ccc(S(=O)(=O)On2ccccc2=O)cc1 [PZBG-1b, 2-Oxopyridin-1(2H)-yl-4-methylbenzenesulfonate]
pseudo-first order rate constant with an excess of H2O2 [3]: 0.3 M⁻¹ s⁻¹ | cleavage in buffer ([4]; in 24 h): ~30%

SMILES: O=C(NCc1ccc(-c2ccccc2)cc1)c1occc(=O)c1OS(=O)(=O)c1ccccc1 [PZBG-6a, 2-(([1,1′-Biphenyl]-4-ylmethyl)carbamoyl)-4-oxo-4H-pyran-3-yl benzenesulfonate]
change in inhibitory activity against MMP-12 upon exposure to H2O2 ([5]; negative control): no significant change in inhibitory activity

— patent US8889638B2, “Stimulus-triggered prodrugs” (The Regents of the University of California, priority 2010, dated 2014)
